Experimental data taken from patent US20050065062A1, “Method of formulating a pharmaceutical composition” (3M Innovative Properties Company, priority 2003, published 2005).

Tests used:
[1] = Franz diffusion cell, membrane diffusion across poly(dimethylsiloxane) membrane
[2] = Franz diffusion cell, membrane diffusion across hairless mouse skin; format: in vitro ADME
Method: Diffusion of the compounds through hairless mouse skin into phosphate buffer in a Franz cell was carried out and measured as described in Example 1, with Sudan I being used in place of Fat Brown RR.

[3] = saturated solution in alpha-terpineol, 0 hours
[4] = saturated solution in alpha-terpineol, 24 hours
[5] = saturated solution in isostearic acid, 0 hours
[6] = saturated solution in isostearic acid, 24 hours
[7] = saturated solution in propylene glycol, 0 hours
[8] = saturated solution in propylene glycol, 24 hours
[9] = saturated solution in tetraglycol, 0 hours
[10] = saturated solution in tetraglycol, 24 hours

With CCN(CCO)c1ccc(N=Nc2ccc([N+](=O)[O-])cc2)cc1 [Disperse Red 1] the “relative order for membrane diffusion rate” value ([1]; ranking of excipients) was “alpha-terpineol>isostearic acid>tetraglycol”, the “CUMULATIVE AMOUNT OF COMPOUND DIFFUSED ACROSS SKIN” value [1, 3] was 0 μg/10 mL and the “CUMULATIVE AMOUNT OF COMPOUND DIFFUSED ACROSS SKIN” value [1, 4] was 11 μg/10 mL. The “CUMULATIVE AMOUNT OF COMPOUND DIFFUSED ACROSS SKIN” value ([1]; saturated solution in alpha-terpineol, 48 hours) was 25 μg/10 mL, the “CUMULATIVE AMOUNT OF COMPOUND DIFFUSED ACROSS SKIN” value ([1]; saturated solution in alpha-terpineol, 72 hours) was 45 μg/10 mL and the “CUMULATIVE AMOUNT OF COMPOUND DIFFUSED ACROSS SKIN” value [1, 5] was 0 μg/10 mL. For the same molecule, the “CUMULATIVE AMOUNT OF COMPOUND DIFFUSED ACROSS SKIN” value [1, 6] was 3 μg/10 mL, the “CUMULATIVE AMOUNT OF COMPOUND DIFFUSED ACROSS SKIN” value ([1]; saturated solution in isostearic acid, 48 hours) was 6 μg/10 mL and the “CUMULATIVE AMOUNT OF COMPOUND DIFFUSED ACROSS SKIN” value ([1]; saturated solution in isostearic acid, 72 hours) was 12 μg/10 mL. The “CUMULATIVE AMOUNT OF COMPOUND DIFFUSED ACROSS SKIN” value [1, 7] was 0 μg/10 mL, the “CUMULATIVE AMOUNT OF COMPOUND DIFFUSED ACROSS SKIN” value [1, 8] was 1 μg/10 mL and the “CUMULATIVE AMOUNT OF COMPOUND DIFFUSED ACROSS SKIN” value ([1]; saturated solution in propylene glycol, 48 hours) was 4 μg/10 mL. The “CUMULATIVE AMOUNT OF COMPOUND DIFFUSED ACROSS SKIN” value ([1]; saturated solution in propylene glycol, 72 hours) was 10 μg/10 mL, the “CUMULATIVE AMOUNT OF COMPOUND DIFFUSED ACROSS SKIN” value [1, 9] was 0 μg/10 mL and the “CUMULATIVE AMOUNT OF COMPOUND DIFFUSED ACROSS SKIN” value [1, 10] was 1 μg/10 mL. The “CUMULATIVE AMOUNT OF COMPOUND DIFFUSED ACROSS SKIN” value ([1]; saturated solution in tetraglycol, 48 hours) was 3 μg/10 mL and the “CUMULATIVE AMOUNT OF COMPOUND DIFFUSED ACROSS SKIN” value ([1]; saturated solution in tetraglycol, 72 hours) was 6 μg/10 mL.
In the case of Nc1ccc(N=Nc2cccc3ccccc23)c(N)c1 [Fat Brown RR], the “relative order for membrane diffusion rate” value ([2]; ranking of excipients) is reported as “alpha-terpineol>propylene glycol>isostearic acid>tetraglycol”, the “CUMULATIVE AMOUNT OF COMPOUND DIFFUSED ACROSS SKIN” value [2, 3] is reported as 0 µg/mL and the “CUMULATIVE AMOUNT OF COMPOUND DIFFUSED ACROSS SKIN” value ([2]; saturated solution in alpha-terpineol, 6 hours) is reported as 168 µg/mL. For the same molecule, the “CUMULATIVE AMOUNT OF COMPOUND DIFFUSED ACROSS SKIN” value ([2]; saturated solution in alpha-terpineol, 12 hours) was 444 µg/mL, the “CUMULATIVE AMOUNT OF COMPOUND DIFFUSED ACROSS SKIN” value ([2]; saturated solution in alpha-terpineol, 18 hours) was 812 µg/mL and the “CUMULATIVE AMOUNT OF COMPOUND DIFFUSED ACROSS SKIN” value [2, 4] was 1162 µg/mL. The “CUMULATIVE AMOUNT OF COMPOUND DIFFUSED ACROSS SKIN” value [2, 5] was 0 µg/mL, the “CUMULATIVE AMOUNT OF COMPOUND DIFFUSED ACROSS SKIN” value ([2]; saturated solution in isostearic acid, 6 hours) was 41 µg/mL and the “CUMULATIVE AMOUNT OF COMPOUND DIFFUSED ACROSS SKIN” value ([2]; saturated solution in isostearic acid, 12 hours) was 92 µg/mL. For the same molecule, the “CUMULATIVE AMOUNT OF COMPOUND DIFFUSED ACROSS SKIN” value ([2]; saturated solution in isostearic acid, 18 hours) was 169 µg/mL, the “CUMULATIVE AMOUNT OF COMPOUND DIFFUSED ACROSS SKIN” value [2, 6] was 262 µg/mL and the “CUMULATIVE AMOUNT OF COMPOUND DIFFUSED ACROSS SKIN” value [2, 7] was 0 µg/mL. For the same molecule, the “CUMULATIVE AMOUNT OF COMPOUND DIFFUSED ACROSS SKIN” value ([2]; saturated solution in propylene glycol, 6 hours) was 84 µg/mL, the “CUMULATIVE AMOUNT OF COMPOUND DIFFUSED ACROSS SKIN” value ([2]; saturated solution in propylene glycol, 12 hours) was 221 µg/mL and the “CUMULATIVE AMOUNT OF COMPOUND DIFFUSED ACROSS SKIN” value ([2]; saturated solution in propylene glycol, 18 hours) was 445 µg/mL. The “CUMULATIVE AMOUNT OF COMPOUND DIFFUSED ACROSS SKIN” value [2, 8] was 677 µg/mL, the “CUMULATIVE AMOUNT OF COMPOUND DIFFUSED ACROSS SKIN” value [2, 9] was 0 µg/mL and the “CUMULATIVE AMOUNT OF COMPOUND DIFFUSED ACROSS SKIN” value ([2]; saturated solution in tetraglycol, 6 hours) was 13 µg/mL. For the same molecule, the “CUMULATIVE AMOUNT OF COMPOUND DIFFUSED ACROSS SKIN” value ([2]; saturated solution in tetraglycol, 12 hours) was 25 µg/mL, the “CUMULATIVE AMOUNT OF COMPOUND DIFFUSED ACROSS SKIN” value ([2]; saturated solution in tetraglycol, 18 hours) was 39 µg/mL and the “CUMULATIVE AMOUNT OF COMPOUND DIFFUSED ACROSS SKIN” value [2, 10] was 52 µg/mL.
